Drawing on patent US9765092B2, “Tricyclic piperidine compounds” (ACTELION PHARMACEUTICALS LTD, priority 2013, dated 2017), this text covers IC50 for 18 compounds.

The target in the experiment is human TPH1 (Homo sapiens (Human), UniProt P17752). The experiment in a line: Biochemical in vitro assay using fluorescence readout (TPH1 inhibition). An excerpt: Biochemical In Vitro Assay Using Fluorescence Readout
To generate the enzyme, full length human TPH1 is cloned into the plasmid pET20b(+) (Novagen) and expressed in E. coli. The bacterial cells are ruptured by sonication on ice and the lysate is cleared by centrifugation. The resulting protein in the pellet is re-extracted and TPH1 is purified from the obtained lysate by affinity chromatography using a pterin cosubstrate analog immobilized to the resin of the column. The protein is further purified by size exclusion chromatography to remove protein aggregates. The activity of TPH1 is determined by using a fluorescence assay. The enzyme activity assay is carried out at 15° C. with atmosphere oxygen for the duration of 60 minutes in a volume of 64 μl. The reaction is carried out in a 0.1 M Tris-HCl buffer, adjusted to pH 7.6, containing 1 mM DTT, 0.2 mg/mL catalase, 100 μM (±)-6-methyl-5,6,7,8-tetrahydropterine dihydrochloride, 40 μM L-tryptophan, and 40-80 nM of TPH1. The reaction is started by bringing together L-tryptophan with all the other reaction substituents and stopped by quenching with perchloric acid (HClO4). The amount of 5-hydroxy-L-tryptophan produced during the enzymatic reaction is determined by fluorescence readout. Fluorescence, as determined at 540 nm when excited at 300 nm wavelength, increases proportionally to the 5-hydroxy-L-tryptophan formed. Compounds are prepared as 10 mM stock solution in DMSO, then diluted in 384-well plates using DMSO followed by a transfer of the dilutions into the assay plate. Fluorescence is measured for each well and the fluorescence at 540 nm wavelength is compared to the fluorescence of the vehicle in place of compound. Inhibitory activities of example compounds with respect to the TPH1 protein are determined by calculating the IC50 value (the concentration of compound needed to inhibit 50% of the enzyme activity). The calculated IC50 values may fluctuate depending on the daily biochemical assay performance. Fluctuations of this kind are known to those skilled in the art.

[1] abbreviates: human TPH1, fluorescence readout.
[2] abbreviates: full length human TPH1, 40 μM L-tryptophan, 15° C., 60 minutes, fluorescence at 540 nm, mean if determined several times.

human TPH1, sequence (P17752 whole entry): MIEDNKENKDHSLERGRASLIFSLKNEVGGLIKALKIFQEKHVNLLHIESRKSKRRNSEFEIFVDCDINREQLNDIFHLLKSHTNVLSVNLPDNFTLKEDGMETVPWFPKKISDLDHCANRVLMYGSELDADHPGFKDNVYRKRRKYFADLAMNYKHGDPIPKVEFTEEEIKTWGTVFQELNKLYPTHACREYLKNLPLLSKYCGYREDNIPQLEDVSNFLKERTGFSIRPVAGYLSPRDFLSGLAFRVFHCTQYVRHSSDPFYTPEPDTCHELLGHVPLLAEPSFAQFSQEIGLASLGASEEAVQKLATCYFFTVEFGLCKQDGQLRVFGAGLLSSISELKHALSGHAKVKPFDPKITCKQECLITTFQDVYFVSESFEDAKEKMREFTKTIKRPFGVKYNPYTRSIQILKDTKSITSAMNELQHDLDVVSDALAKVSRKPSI

`Cc1nc(C2c3c(nc4sc(C)nn34)CCN2C(=O)COc2ccc(N3CCOCC3)nc2Cl)c(C)o1` (stereo not drawn) [Example 1.67.1, 2-((2-chloro-6-morpholinopyridin-3-yl)oxy)-1-(5-(2,5-dimethyloxazol-4-yl)-2-methyl-7,8-dihydro-[1,3,4]thiadiazolo [2′,3′:2,3]imidazo[4,5-c]pyridin-6(5H)-yl)ethanone] came in with an IC50 under setting [1] of 25 nM.

Under setting [2], `Cc1nn2c3c(nc2s1)CCN(C(=O)COc1ccc(N2CC(F)(F)C2)nc1Cl)C3c1cc(C(=O)N(C)C)cs1` (stereo not drawn) [Example 1.9.2, 5-(6-(2-((2-Chloro-6-(3,3-difluoroazetidin-1-yl)pyridin-3-yl)oxy)acetyl)-2-methyl-5,6,7,8-tetrahydro-[1,3,4]thiadiazolo[2′,3′:2,3]imidazo[4,5-c]pyridin-5-yl)-N,N-dimethylthiophene-3-carboxamide] returned an IC50 of 32 nM.

With `Cc1ccc(OCC(=O)N2CCc3nc4sccn4c3C2c2nc3ccccc3s2)cc1` (stereo not drawn) [Example 6.12.1, 1-(5-(benzo[d]thiazol-2-yl)-7,8-dihydrothiazolo-[2′,3′:2,3]imidazo[4,5-c]pyridin-6(5H)-yl)-2-(p-tolyloxy)ethanone], the IC50 under setting [1] was 26 nM.

In the case of `CCOC(=O)c1ncc(C2c3c(nc4sc(C)nn34)CCN2C(=O)COc2ccc(C#N)cc2Cl)s1` (stereo not drawn) [Example 1.30.3, Ethyl 5-(6-(2-(2-chloro-4-cyanophenoxy)acetyl)-2-methyl-5,6,7,8-tetrahydro-[1,3,4]thiadiazolo[2′,3′:2,3]imidazo[4,5-c]pyridin-5-yl)thiazole-2-carboxylate], under setting [1], the IC50 was found to be 371 nM.

`CCNc1nn(C)c(C2c3c(nc4sc(C)nn34)CCN2C(=O)COc2ccc(N3CCOCC3)nc2Cl)c1C` (stereo not drawn) [Example 1.51.1, 2-((2-Chloro-6-morpholinopyridin-3-yl)oxy)-1-(5-(3-(ethylamino)-1,4-dimethyl-1H-pyrazol-5-yl)-2-methyl-7,8-dihydro-[1,3,4]thiadiazolo[2′,3′:2,3]imidazo[4,5-c]pyridin-6(5H)-yl)ethanone]: inhibition under setting [2] was half-maximal at 58 nM (IC50).

Turning to `Cc1nn2c3c(nc2s1)CCN(C(=O)COc1ccc(N2C(C)CCC2C)nc1Cl)C3c1ccc(Cl)cc1F` (stereo not drawn) [Example 1.4.15, 1-(5-(4-chloro-2-fluorophenyl)-2-methyl-7,8-dihydro-[1,3,4]thiadiazolo[2′,3′:2,3]imidazo[4,5-c]pyridin-6(5H)-yl)-2-((2-chloro-6-(2,5-dimethylpyrrolidin-1-yl)pyridin-3-yl)oxy)ethanone], the IC50 under setting [2] is 6 nM.

`COC(=O)c1ccc(C2c3c(nc4sc(C)nn34)CCN2C(=O)COc2ccc(C(=O)NC3CC3)nc2Cl)c(F)c1` (stereo not drawn) [Example 1.79.2, methyl-4-(6-(2-((2-chloro-6-(cyclopropylcarbamoyl)pyridin-3-yl)oxy)acetyl)-2-methyl-5,6,7,8-tetrahydro-[1,3,4]thiadiazolo[2′,3′:2,3]imidazo[4,5-c]pyridin-5-yl)-3-fluorobenzoate]: under setting [1], the IC50 was determined as 21 nM.

In turn, `Cc1nn2c3c(nc2s1)CCN(C(=O)COc1ccc(C#N)cc1Cl)C3c1ccc(Cl)cc1F` (stereo not drawn) [Example 1.4.24, 3-chloro-4-(2-(5-(4-chloro-2-fluorophenyl)-2-methyl-7,8-dihydro-[1,3,4]thiadiazolo[2′,3′:2,3]imidazo[4,5-c]pyridin-6(5H)-yl)-2-oxoethoxy)benzonitrile] registered a concentration for half-maximal inhibition (IC50) under setting [1] of 11 nM.

Under setting [1], `CCc1nc(NS(C)(=O)=O)ccc1OCC(=O)N1CCc2nc3sc(CF)nn3c2C1c1ccc(C)cc1F` (stereo not drawn) [Example 7.3.2, N-(6-ethyl-5-(2-(5-(2-fluoro-4-methylphenyl)-2-(fluoromethyl)-7,8-dihydro-[1,3,4]thiadiazolo[2′,3′:2,3]imidazo[4,5-c]pyridin-6(5H)-yl)-2-oxoethoxy)pyridin-2-yl)methanesulfonamide] gave an IC50 of 12 nM. This IC50 and that of the compound before are within 1.5-fold of each other.

For `Cc1nn2c3c(nc2s1)CCN(C(=O)COc1cccnc1Cl)C3c1cnc(N2CCOCC2)s1` (stereo not drawn) [Example 1.7.3, 2-((2-chloropyridin-3-yl)oxy)-1-(2-methyl-5-(2-morpholinothiazol-5-yl)-7,8-dihydro-[1,3,4]thiadiazolo [2′,3′:2,3]imidazo[4,5-c]pyridin-6(5H)-yl)ethanone], under setting [1], inhibition was half-maximal at 338 nM (IC50).

`Cc1nn2c3c(nc2s1)CCN(C(=O)COc1ccc(C2CC2)nc1Cl)C3c1ccc(Cl)cc1F` (stereo not drawn) [Example 1.4.28, 1-(5-(4-Chloro-2-fluorophenyl)-2-methyl-7,8-dihydro-[1,3,4]thiadiazolo[2′,3′:2,3]imidazo[4,5-c]pyridin-6(5H)-yl)-2-((2-chloro-6-cyclopropylpyridin-3-yl)oxy)-ethanone] yielded an IC50 under setting [2] of 6 nM. That is a single-digit nanomolar value.

On to `O=C(COc1ccc2ccncc2c1)N1CCc2nc3sccn3c2C1c1nc2ccccc2s1` (stereo not drawn) [Example 6.12.9, 1-(5-(benzo[d]thiazol-2-yl)-7,8-dihydrothiazolo-[2′,3′:2,3]imidazo[4,5-c]pyridin-6(5H)-yl)-2-(isoquinolin-7-yloxy)ethanone], for which, under setting [1], the concentration for half-maximal inhibition (IC50) was 12 nM.

`Cc1nn2c3c(nc2s1)CCN(C(=O)COc1ccc(C(=O)N(C)C)nc1Cl)C3c1cnc(-c2ccccc2)s1` (stereo not drawn) [Example 1.60.1, 6-chloro-N,N-dimethyl-5-(2-(2-methyl-5-(2-phenylthiazol-5-yl)-7,8-dihydro-[1,3,4]thiadiazolo[2′,3′:2,3]imidazo[4,5-c]pyridin-6(5H)-yl)-2-oxoethoxy)picolinamide] yielded an IC50 under setting [1] of 14 nM.

In the case of `Cc1ccc([C@H]2c3c(nc4sc(C)nn34)CCN2C(=O)COc2ccc(NS(C)(=O)=O)nc2Cl)c(F)c1` [Example 1.53.4], under setting [1], it took 8 nM to reach half-maximal inhibition (IC50).

`Cc1nc(C)c(C2c3c(nc4sc(C)nn34)CCN2C(=O)COc2ccc(N(C)S(C)(=O)=O)nc2Cl)s1` (stereo not drawn) [Example 1.68.6, N-(6-chloro-5-(2-(5-(2,4-dimethylthiazol-5-yl)-2-methyl-7,8-dihydro-[1,3,4]thiadiazolo[2′,3′:2,3]imidazo[4,5-c]-pyridin-6(5H)-yl)-2-oxoethoxy)pyridin-2-yl)-N-methylmethanesulfonamide]: under setting [1], 6 nM corresponded to half-maximal inhibition (IC50).

Consider `CCOC(=O)c1coc(C2c3c(nc4sc(C)nn34)CCN2C(=O)COc2ccc(N3CCOCC3)nc2Cl)n1` (stereo not drawn) [Example 1.29.1, Ethyl 2-(6-(2-((2-chloro-6-morpholinopyridin-3-yl)oxy)acetyl)-2-methyl-5,6,7,8-tetrahydro-[1,3,4]thiadiazolo [2′,3′:2,3]imidazo[4,5-c]pyridin-5-yl)oxazole-4-carboxylate], for which 20 nM corresponded to half-maximal inhibition under setting [1] (IC50).

The compound `CCOC(=O)c1csc(C2c3c(nc4sc(C)nn34)CCN2C(=O)COc2ccc(C(F)(F)F)cc2Cl)n1` (stereo not drawn) [Example 1.27.3, ethyl 2-(6-(2-(2-chloro-4-(trifluoromethyl)phenoxy)acetyl)-2-methyl-5,6,7,8-tetrahydro-[1,3,4]thiadiazolo[2′,3′:2,3]imidazo[4,5-c]pyridin-5-yl)thiazole-4-carboxylate] gave an IC50 under setting [1] of 245 nM.

The compound `Cc1nn2c3c(nc2s1)CCN(C(=O)COc1ccnc2c(C)c(Cl)ccc12)C3c1ccc(Cl)cc1F` (stereo not drawn) [Example 1.4.64, 1-(5-(4-chloro-2-fluorophenyl)-2-methyl-7,8-dihydro-[1,3,4]thiadiazolo[2′,3′:2,3]imidazo[4,5-c]pyridin-6(5H)-yl)-2-((7-chloro-8-methylquinolin-4-yl)oxy)ethan-1-one] showed a concentration for half-maximal inhibition (IC50) under setting [1] of 255 nM.
